Data: ChEMBL document CHEMBL1136074, “BR96 conjugates of highly potent anthracyclines” (Bioorg Med Chem Lett, 2003)

Tests used:
[1] = Hydrolytic stability at pH 7.0 at 37 degree C; expressed as T1/2; assay type: physicochemical; conditions: buffer
[2] = Hydrolytic stability at pH 5.0 at 37 degree C; expressed as T1/2; assay type: physicochemical; conditions: buffer
[3] = test system: L2987; assay: In vitro inhibitory concentration of the unconjugated compound against human L2987 lung carcinoma cell line; assay type: functional, cell-based
[4] = test system: L2987; assay: Potency against human L2987 lung carcinoma cell line relative to that of DOX 1a; assay type: functional
[5] = test system: L2987; assay: In vitro inhibitory concentration of the BR96 conjugate of compound against human L2987 lung carcinoma cell line; assay type: functional, cell-based
[6] = test system: L2987; assay: (§1) Potency against human L2987 lung carcinoma cell line relative to that of BR96-1b; assay type: functional
[7] = test system: L2987; assay: In vitro inhibitory concentration of the IgG conjugate of compound against human L2987 lung carcinoma cell line; assay type: functional, cell-based
[8] = Selectivity ratio determined as IC50 IgG-2b to that of IC50 BR96-2b; assay type: functional
[9] = Selectivity ratio determined as IC50 IgG-3b to that of IC50 BR96-3b; assay type: functional
[10] = test system: L2987; assay: as §1; assay type: functional, cell-based
[11] = Selectivity ratio determined as IC50 IgG-1b to that of IC50 BR96-1b; assay type: functional

| Compound | half-life [1] | half-life [2] | IC50 [3] | IC50 [5] | also measured |
| --- | --- | --- | --- | --- | --- |
| COc1cccc2c1C(=O)c1c(O)c3c(c(O)c1C2=O)C[C@@](O)(C(=O)CO)C[C@@H]3OC1C[C@H](N2CCOCC2)C(O)[C@H](C)O1 (stereo partly specified) | – | – | 40 nM | – | Relative potency [4]: 8 |
| COc1cccc2c1C(=O)c1c(O)c3c(c(O)c1C2=O)C[C@@](O)(/C(CO)=N/NC(=O)CCCCCN1C(=O)CC(SCCO)C1=O)C[C@@H]3OC1C[C@H](NCCCCC(OC(C)=O)OC(C)=O)C(O)[C@H](C)O1 (stereo partly specified) | > 4.17 days | 390 min | – | – | – |
| COc1cccc2c1C(=O)c1c(O)c3c(c(O)c1C2=O)C[C@@](O)(C(=O)CO)C[C@@H]3O[C@H]1C[C@H](N)[C@H](O)[C@H](C)O1 [DOXORUBICIN] | – | – | 300 nM | – | – |
| COc1cccc2c1C(=O)c1c(O)c3c(c(O)c1C2=O)C[C@@](O)(C(=O)CO)C[C@@H]3OC1C[C@H](NCCCCC(OC(C)=O)OC(C)=O)C(O)[C@H](C)O1 (stereo partly specified) | – | – | 30 nM | – | Relative potency [4]: 10 |

Second part, led by results:

| half-life [1] | half-life [2] | IC50 [3] | IC50 [5] | Compound | also measured |
| --- | --- | --- | --- | --- | --- |
| > 3.96 days | 270 min | – | – | COc1cccc2c1C(=O)c1c(O)c3c(c(O)c1C2=O)C[C@@](O)(/C(CO)=N/NC(=O)CCCCCN1C(=O)CC(SCCO)C1=O)C[C@@H]3OC1C[C@H](N2CCOCC2)C(O)[C@H](C)O1 (stereo partly specified) | – |
| – | – | – | 30 nM | COc1cccc2c1C(=O)c1c(O)c3c(c(O)c1C2=O)C[C@@](O)(/C(CO)=N/NC(=O)CCCCCN1C(=O)CC(S)C1=O)C[C@@H]3OC1C[C@H](NCCCCC(OC(C)=O)OC(C)=O)C(O)[C@H](C)O1 (stereo partly specified) | Relative potency [6]: 30; IC50 [7]: 10 µM; Ratio [8]: 300 |
| – | – | – | 200 nM | COc1cccc2c1C(=O)c1c(O)c3c(c(O)c1C2=O)C[C@@](O)(/C(CO)=N/NC(=O)CCCCCN1C(=O)CC(S)C1=O)C[C@@H]3OC1C[C@H](N2CCOCC2)C(O)[C@H](C)O1 (stereo partly specified) | Ratio [9]: 10; IC50 [10]: 5 µM; IC50 [7]: 2 µM |
| – | – | – | 1000 nM | COc1cccc2c1C(=O)c1c(O)c3c(c(O)c1C2=O)C[C@@](O)(/C(CO)=N/NC(=O)CCCCCN1C(=O)CC(S)C1=O)C[C@@H]3OC1C[C@H](N)C(O)[C@H](C)O1 (stereo partly specified) | Ratio [11]: 8 |
| > 5 days | 420 min | – | – | COc1cccc2c1C(=O)c1c(O)c3c(c(O)c1C2=O)C[C@@](O)(/C(CO)=N/NC(=O)CCCCCN1C(=O)CC(SCCO)C1=O)C[C@@H]3OC1C[C@H](N)C(O)[C@H](C)O1 (stereo partly specified) | – |
